Experimental data taken from patent US12533350B2, “Use of melanocortin-1 receptor agonist” (TANABE PHARMA CORPORATION, priority 2022, dated 2026).

Assays:
[1] = system: serum proteins in BLM-induced SSc model; conditions: Compound A 10 mg/kg
Method: Serum samples were obtained from mice of the BLM-induced SSc model (therapeutic evaluation). Samples from the saline_vehicle (control group without disease), BLM_vehicle (control group with disease), BLM_Compound A (10 mg/kg), and BLM_imatinib (150 mg/kg) groups were used for analysis. Using a Luminex assay (R&D systems), 110 proteins were investigated (supplemental Table s1). Proteins satisfying any of the following criteria were analyzed: i) all samples were adequately measured within the quantitative range; ii) more than half of the samples in one or more groups were quantified, although some samples were out of the quantitative range.
Using serum samples of mice to which 10 mg/kg of Compound A and 150 mg/kg of imatinib were administered, serum protein profiling was carried out in a BLM-induced SSc model (treatment model). Using a Luminex assay, 110 kinds of proteins were investigated.

MC1R = MC1R (Homo sapiens, UniProt Q01726); conditions: described in WO 2020/138481; co-crystal with phosphoric acid; cited from earlier work
[2] = system: pre-established BLM-induced skin fibrosis
[3] = system: lung tissue gene expression in BLM-induced SSc model; conditions: 0.3 mg/kg
Method: Total RNA of mouse lung tissue samples of PBSY_vehicle (control group without disease), BLM_vehicle (control group with disease), and BLM_Compound A (0.3 mg/kg) obtained from the BLM-induced SSc model (prophylactic evaluation) was used for analysis. The purity, concentration, and quality of the RNA samples were confirmed with NanoDrop 2000 (Thermo Fisher Scientific) and Agilent 2100 bioanalyser (Agilent Technologies). The RNA was then Cy3-labeled using a Low Input Quick Amp Labeling Kit, one-color (Agilent Technologies). Labeled cRNA samples were fragmented, and then hybridized with the Agilent SurePrint G3 Mouse GE v2 8×60 K Microarray (Agilent Technologies) using a Gene Expression Hybridization Kit (Agilent Technologies). After hybridization, the microarray was washed with the Gene Expression Wash Buffers Pack (Agilent Technologies) and imaged with a scanner to detect the signals. Signal intensities were evaluated with Agilent Feature Extraction software 12.0.
Bioinformatics analysis in this study was performed with software, including GeneSpring GX 14.9.1, IPA 2019 autumn, and Microsoft Excel 2010. Genes that fluctuated ≥2 fold in BLM_vehicle group in comparison with those of the PBS_vehicle group and that satisfied a p-value <0.05 of the moderated t-test were defined as “differentially expressed genes (DEGs) in the disease model”. Among DEGs, the genes in the Compound A treatment group that fluctuated ≥1.5 fold in the opposite direction and met a p-value <0.05 of the moderated t-test in comparison with those of the BLM_vehicle group were defined as “DEGs by Compound A treatment”. DEGs were inputted into IPA and two types of calculations were performed: “Canonical pathways” and “Diseases or functions”. Here, “Canonical pathways” is described as “pathways” and “Diseases or functions” is described as “category”. The former contains a list for a series of gene interactions and the latter is a list related to diseases and biological functions. These datasets are registered in the IPA software. Initially, the Fisher's exact test was used to calculate the probability of overlap between two sets of genes. Thereafter, downstream effect analysis (DSEA) was used to calculate the activation z-score. DSEA is a technique for predicting the direction of change in expression patterns (either activation or inhibition) based on the expected causal effects between genes and functions. Based on the results of the DSEA analysis, information about the cell type (macrophages, neutrophils, mononuclear leukocytes, T-lymphocytes, B-lymphocytes, smooth muscle cells, endothelial cells, epithelial cells, and fibroblasts) that may be involved in the pathogenesis of SSc was extracted. Subsequently, information regarding biological functions and molecular signaling pathways, such as inflammation/immune abnormality, vascular dysfunction, and fibrosis, involved in the pathogenesis of SSc are extracted.
DNA microarray analysis was carried out using lung samples from a BLM-induced SSc model (prevention model) to which 0.3 mg/kg of Compound A was administered. Bioinformatics analysis was carried out using IPA software, and two datasets were used to perform two types of calculations (“Canonical pathways” and “Diseases or functions”). Downstream effect analysis was used to calculate the activation z-score.

[4] = Compound A at 3 and 10 mg/kg orally once daily day 22-42, samples day 43

Sequence of MC1R (Q01726 whole entry, species assumed): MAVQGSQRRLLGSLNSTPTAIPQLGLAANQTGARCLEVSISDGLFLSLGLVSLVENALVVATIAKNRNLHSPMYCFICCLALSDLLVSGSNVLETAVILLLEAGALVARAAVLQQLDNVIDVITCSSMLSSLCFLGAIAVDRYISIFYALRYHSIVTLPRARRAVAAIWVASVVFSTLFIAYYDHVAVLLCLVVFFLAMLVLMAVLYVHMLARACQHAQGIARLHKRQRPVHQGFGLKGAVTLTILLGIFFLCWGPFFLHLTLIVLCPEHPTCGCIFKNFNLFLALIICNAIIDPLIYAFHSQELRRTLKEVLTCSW

COC[C@H]1CN(C(=O)[C@]2(F)CN(C3CCCC3)C[C@H]2c2ccc(OC)cc2)C[C@@H]1c1ccc(C(F)(F)F)cc1N1CCC(C(=O)O)CC1 [Compound A, 1-{2-[(3S,4R)-1-{[(3R,4R)-1-cyclopentyl-3-fluoro-4-(4-methoxyphenyl)pyrrolidin-3-yl]carbonyl}-4-(methoxymethyl)pyrrolidin-3-yl]-5-(trifluoromethyl)phenyl}piperidine-4-carboxylic acid]
BLM-induced elevation of serum GDF-15 [1]: significantly suppressed | BLM-induced elevation of serum MMP-2 [1]: significantly suppressed | BLM-induced elevation of serum MMP-3 [1]: significantly suppressed | BLM-induced elevation of serum P-selectin [1]: significantly suppressed | BLM-induced elevation of serum S100A9 [1]: significantly suppressed | BLM-induced elevation of serum TIMP-1 [1]: significantly suppressed | BLM-induced elevation of serum TNFRI [1]: significantly suppressed | BLM-induced elevation of serum TNFRII [1]: significantly suppressed | BLM-induced elevation of serum adiponectin [1]: significantly suppressed | BLM-induced elevation of serum cystatin C [1]: significantly suppressed | BLM-induced elevation of serum osteoprotegerin [1]: significantly suppressed | MCR-activating action, especially MC1R-activating action (MC1R): excellent MCR-activating action | BLM-induced increase of skin thickness [2, 4]: significantly inhibited | BLM-induced increase of αSMA-positive myofibroblasts in the dermis [2, 4]: significantly inhibited | BLM-induced loss of dermal white adipose tissue (Masson's trichrome staining) ([2]; Compound A orally once daily day 22-42, samples day 43): inhibited | progression of fibrosis after 3 weeks (versus group 2: BLM 3 weeks then saline 3 weeks) ([2]; Compound A orally once daily during last 3 weeks of 6-week BLM): almost completely inhibited | gene expression fluctuation induced by BLM in IL-6 pathway genes (upstream and downstream) [3]: reversed | IL-6 signaling pathway ([3]; IPA canonical pathways): affected | PPAR signaling pathway ([3]; IPA canonical pathways): affected | TREM1 signaling pathway ([3]; IPA canonical pathways): affected | oncostatin M signaling pathway ([3]; IPA canonical pathways): affected | category activation of antigen-presenting cells (activated by BLM) ([3]; IPA downstream effect analysis): suppressed | category angiogenesis (activated by BLM) ([3]; IPA downstream effect analysis): suppressed | category atherosclerosis (activated by BLM) ([3]; IPA downstream effect analysis): suppressed | category inflammatory response (activated by BLM) ([3]; IPA downstream effect analysis): suppressed | category vasculogenesis (activated by BLM) ([3]; IPA downstream effect analysis): suppressed | category vaso-occlusion (activated by BLM) ([3]; IPA downstream effect analysis): suppressed | number of DEGs by Compound A treatment (≥1.5 fold in opposite direction, p<0.05 vs BLM_vehicle) ([3]; among 3337 DEGs in the disease model): 1477 | T-lymphocyte-related categories (IPA activation z-score) ([3]; not changed by BLM): suppressed | endothelial cell-related categories (IPA activation z-score) ([3]; not changed by BLM): suppressed | expression of the IL-6 gene among component genes of the IL-6 signaling pathway ([3]; remarkably upregulated by BLM): downregulated the most
